Assay results: patent US9901592B2 (priority 2008, dated 2018)
Converted amounts (≈) assume the structure as drawn. Where two headings read alike, the source gives them in different places.

Legend:
M. catarrhalis = assay: microbe, parasite or virus in culture; type: cell-based; settings: Moraxella catarrhalis
S. pneumoniae [1] = assay: microbe, parasite or virus in culture; type: cell-based
M. hominis = type: cell-based; settings: M. hominis (13 isolates)
S. pneumoniae [2] = assay: neutropenic mouse thigh infection; type: in vivo; settings: PO
Experimental: Example. Neutropenic Mouse Thigh Infection. Mice were rendered neutropenic with IP injections of cyclophosamide at day −4 and day −1 of 150 mg/Kg and 100 mg/Kg, respectively. On day 0 mice were infected with approximately 5×10^5 CFU/ml of bacteria in a 0.1 ml volume into the right thigh. At 1.5 hours post infection mice received treatment via oral gavage. One group of infected mice were euthanized and thigh processed for bacterial titers to serve as T=0 controls. Twenty-four hours post treatment, the remaining mice were euthanized, thighs aseptically removed, weighed, homogenized, serially diluted and plated on bacterial growth media. CFUs per gram of thigh were calculated after overnight incubation of bacterial plates. The amount of test article required to achieve 1, 2, and 3 loge reductions from 24 hour control thighs were calculated. Additional studies were performed that fractionated the single treatment dose (Q24) into two (Q12), three (Q8) and four (Q6) equivalent doses to determine the pharmacodynamic nature of this compound. Further analysis includes static dose, EC50, 1 log kill and maximal effect (Emax).

S. pneumoniae [3] = assay: MIC of the strains of the mouse systemic infection model; type: cell-based; settings: Streptococcus pneumoniae
N. meningitidis = assay: MIC, CLSI broth microdilution, invasive isolates; type: cell-based; settings: Neisseria meningitidis; 62 N. meningitidis isolates
Experimental: Example. […] Colonization of the nasopharynx (NP) by NM can lead to invasive meningococcal disease. Chemoprophylaxis is used to eradicate NP colonization and prevent transmission to nonimmune contacts. […] 62 isolates (91.9% blood culture) of NM were collected from 29 medical centers in North and South America and Europe (1997-2008). […] Serological identification was performed for serogroups (SGs) B, C, Y and W135.

S. pneumoniae [4] = type: cell-based; settings: for Mutant selection frequencies: S. pneumoniae
U. urealyticum = assay: MIC testing in 10B broth (colour change); type: cell-based; settings: U. urealyticum (10 isolates)
S. pneumoniae [5] = assay: neutropenic mouse thigh infection; type: in vivo; settings: QD, PO

## CC[C@H]1OC(=O)[C@H](C)C(=O)[C@H](C)[C@@H](O[C@@H]2O[C@H](C)C[C@H](N(C)C)[C@H]2O)[C@](C)(OC)C[C@@H](C)C(=O)[C@H](C)[C@H]2N(CCCCn3cnc(-c4cccnc4)c3)C(=O)O[C@]12C [TEL, telithromycin]
M. catarrhalis
  MIC50: 0.12 µg/mL (≈ 0.148 µM)
  MIC90: 0.25 µg/mL (≈ 0.308 µM)
S. pneumoniae [1]
  MIC 90%: 0.5 µg/mL (≈ 0.616 µM)
  susceptible: 100.0%
S. pneumoniae [1]; Streptococcus pneumoniae
  MIC90: 1 µg/mL (≈ 1.23 µM)
M. hominis
  MIC Range: 0.125 to 0.5 µg/mL
M. hominis; Metamycoplasma hominis, read-out: MIC50
  MIC50: 0.25 µg/mL (≈ 0.308 µM)
M. hominis; Metamycoplasma hominis, read-out: MIC90
  MIC90: 0.5 µg/mL (≈ 0.616 µM)
S. pneumoniae [2]; S. pneumoniae 1629
  Max. change in log10CFUs from 24 hr. controls: −6.82 log10CFUs
S. pneumoniae [2]; S. pneumoniae 1629, QD
  Dose for 2 log10 Reduction from 24 hour controls: 13.2 mg/Kg
S. pneumoniae [2]; S. pneumoniae 6303
  Max. change in log10CFUs from 24 hr. controls: −5.27 log10CFUs
S. pneumoniae [3]; S. pneumoniae (macrolide susceptible)
  MIC: < 0.06 µg/mL
S. pneumoniae [3]; S. pneumoniae (mefR), read-out: MIC
  MIC: 0.25 µg/mL
S. pneumoniae [3]; S. pneumoniae serotype 19A, read-out: MIC
  MIC: 0.5 µg/mL
N. meningitidis
  MIC: 0.015 to 0.12 µg/mL (≈ 0.0185 to 0.148 µM)
  MIC50: ≤ 0.015 µg/mL
  MIC90: 0.03 µg/mL (≈ 0.0369 µM)
S. pneumoniae [4]; at 2×MIC
  Mutant selection frequencies: 1.1×10^−9-1.3×10^−4
S. pneumoniae [4]; at 8×MIC
  Mutant selection frequencies: <1.5×10^−10-4.8×10^−6
S. pneumoniae [4]; strain 24 Macrolide-R [erm(B)], 2 × MIC
  single step mutation frequency: 1.3 × 10^−4
S. pneumoniae [4]; strain 24 Macrolide-R [erm(B)], 4 × MIC
  single step mutation frequency: 2.5 × 10^−6
S. pneumoniae [4]; strain 24 Macrolide-R [erm(B)], 8 × MIC
  single step mutation frequency: 1.7 × 10^−6
S. pneumoniae [4]; strain 1076 Macrolide-R [erm(B)&mef(A)], 2 × MIC
  single step mutation frequency: 6.5 × 10^−6
S. pneumoniae [4]; strain 1076 Macrolide-R [erm(B)&mef(A)], 4 × MIC
  single step mutation frequency: 9.7 × 10^−6
S. pneumoniae [4]; strain 1076 Macrolide-R [erm(B)&mef(A)], 8 × MIC
  single step mutation frequency: 4.8 × 10^−6
S. pneumoniae [4]; strain 1077 Macrolide-S, 2 × MIC
  single step mutation frequency: 1.1 × 10^−9
S. pneumoniae [4]; strain 1077 Macrolide-S, 4 × MIC
  single step mutation frequency: <5.5 × 10^−10
S. pneumoniae [4]; strain 1077 Macrolide-S, 8 × MIC
  single step mutation frequency: <5.5 × 10^−10
S. pneumoniae [4]; strain 1635 Macrolide-R [erm(A)], 2 × MIC
  single step mutation frequency: <2.7 × 10^−9
S. pneumoniae [4]; strain 1635 Macrolide-R [erm(A)], 4 × MIC
  single step mutation frequency: <2.7 × 10^−9
S. pneumoniae [4]; strain 1635 Macrolide-R [erm(A)], 8 × MIC
  single step mutation frequency: <2.7 × 10^−9
S. pneumoniae [4]; strain 2686 Macrolide-R [L4 mutation], 2 × MIC
  single step mutation frequency: 2.2 × 10^−5
S. pneumoniae [4]; strain 2686 Macrolide-R [L4 mutation], 4 × MIC
  single step mutation frequency: 2.2 × 10^−9
S. pneumoniae [4]; strain 2686 Macrolide-R [L4 mutation], 8 × MIC
  single step mutation frequency: <1.1 × 10^−9
S. pneumoniae [4]; strain 3009 Macrolide-R [23S rRNA mutation], 2 × MIC
  single step mutation frequency: 3.8 × 10^−7
S. pneumoniae [4]; strain 3009 Macrolide-R [23S rRNA mutation], 4 × MIC
  single step mutation frequency: <1.5 × 10^−10
S. pneumoniae [4]; strain 3009 Macrolide-R [23S rRNA mutation], 8 × MIC
  single step mutation frequency: <1.5 × 10^−10
S. pneumoniae [4]; strain 3665 Macrolide-R [mef(A)], 2 × MIC
  single step mutation frequency: 7.5 × 10^−9
S. pneumoniae [4]; strain 3665 Macrolide-R [mef(A)], 4 × MIC
  single step mutation frequency: 2.5 × 10^−9
S. pneumoniae [4]; strain 3665 Macrolide-R [mef(A)], 8 × MIC
  single step mutation frequency: <2.5 × 10^−10
S. pneumoniae [4]; strain 7127 Macrolide-S [S20N in L4, A105V in L22], 2 × MIC
  single step mutation frequency: <5.0 × 10^−9
S. pneumoniae [4]; strain 7127 Macrolide-S [S20N in L4, A105V in L22], 4 × MIC
  single step mutation frequency: <5.0 × 10^−9
S. pneumoniae [4]; strain 7127 Macrolide-S [S20N in L4, A105V in L22], 8 × MIC
  single step mutation frequency: <5.0 × 10^−9
U. urealyticum
  MIC Range: 0.016 to 0.25 µg/mL
U. urealyticum; Ureaplasma urealyticum
  MIC50: 0.063 µg/mL (≈ 0.0776 µM)
  MIC90: 0.25 µg/mL (≈ 0.308 µM)
S. pneumoniae [5]; S. pneumoniae 1629
  Dose for 1 log10 Reduction from 24 hour controls: 11.0 mg/Kg
  Dose for 3 log10 Reduction from 24 hour controls: 15.5 mg/Kg
S. pneumoniae [5]; S. pneumoniae 6303
  Dose for 1 log10 Reduction from 24 hour controls: 4.75 mg/Kg
  Dose for 2 log10 Reduction from 24 hour controls: 6.5 mg/Kg
  Dose for 3 log10 Reduction from 24 hour controls: 8.75 mg/Kg
